Patent US20250228881A1, “COMPOSITION FOR PREVENTION OR TREATMENT OF MULTIPLE MYELOMA COMPRISING NOVEL T[…] AS ACTIVE INGREDIENT” (KBLUEBIO INC, priority 2021, published 2025)
Entries after “also recorded” stand apart in the source; their conditions may differ.

Columns and labels:
[1] = test system: human-derived multiple myeloma cell lines ARH77, U266, and RPMI 8226; experiment: Multiple myeloma mouse xenograft model, tail vein administration; format: in vivo; conditions: xenograft mice
Method: Using xenograft models obtained by injecting the same human-derived multiple myeloma cell lines ARH77, U266, and RPMI 8226 into mice, each of KBB-N2 was injected into the vein tail at 7 mg/Kg/day, and as a positive control, lenalidomide, which is currently widely used as a therapeutic agent for multiple myeloma in clinical practice, was injected into the vein tail at 1 mg/Kg/day.

[2] = test system: normal hematopoietic stem cells; experiment: Progenitor colony formation of normal PBSC fraction on methylcellulose (toxicity to hematopoietic stem cells); format: cell-based; conditions: normal donor PBSC, 2 weeks, KBB-N2 up to 60 μM
Method: G-CSF was subcutaneously injected into a normal donor to mobilize hematopoietic stem cells, and a peripheral blood stem cell (PBSC) fraction was extracted from the donor's peripheral blood by leukapheresis. The obtained normal PBSC fraction and KBB-N2 were cultured on methylcellulose for 2 weeks, and the cytotoxicity of KBB-N2 to hematopoietic stem cells was evaluated by counting the number of the formed erythroid progenitor colonies and leukocyte/megakaryocytic progenitor colonies.

RPMI 8226 cells = experiment: Quantitative RT-PCR array of 84 apoptosis-related genes after KBB-N2 treatment; format: cell-based, Human; conditions: 50 μM KBB-N2, 48 hours
Method: To investigate the cell death mechanism induced by treatment with KBB-N2, changes in the expression of apoptosis-related genes in a multiple myeloma cell line were measured. 50 μM of KBB-N2 was added to multiple myeloma cells (million cells/mL), followed by 48 hours of culture. Then, total RNA was extracted and the expression levels of 84 apoptosis-related genes were analyzed using quantitative RT-PCR array (Cat #PAHS-012Z; Qiagen Seoul, Seoul, Korea). After treating the cells with 50 μM of KBB-N2, the cells were cultured for 48 hours, and total RNA was isolated from the RPMI 8226 cells using the RNAqueous total RNA isolation kit (Thermo Fisher Scientific). Contaminating genomic DNA in the extracted RNA was removed using an RNase-Free DNase set (Qiagen). Total RNA (5 ug) was reverse transcribed into cDNA in a reaction volume of 10 μL using the RT2 First Strand Kit (Qiagen). Next, 10 μL of cDNA was combined with each primer set of the human apoptosis-related RT2 Profiler PCR Array (Qiagen) according to the manufacturer's protocol. Amplification reactions were performed using the real-time polymerase chain reaction system CFX96 (Bio-Rad, Hercules, CA, USA) with automated baseline and threshold cycle detection. The relative expression of […] genes was normalized to five built-in housekeeping genes. Each group was analyzed by the web-based software GeneGlobe Data Analysis Center (Qiagen).

[3] = test system: multiple myeloma cell lines; experiment: Co-treatment of multiple myeloma cell lines with KBB-N2 and lenalidomide (killing effect); format: cell-based, Human; conditions: co-treated with lenalidomide, compared with lenalidomide alone
Method: Multiple myeloma cells IM-9 and RPMI 8226 (3×10^6 cells/mL) treated with KBB-N2 for 48 hours were washed with 1x PBS (phosphate-buffered saline, pH 7.4) and fixed with 70% ethanol. After washing several times with 1×PBS, 5 μL of Annexin V-FITC and 5 μL of PI (propidium iodine) (Sigma-Aldrich, St. Louis, MO) were added to 500 μL of 1×PBS containing the cells (1×10^6 cells/mL) suspended therein, followed by staining in a dark room at room temperature for 30 minutes. Then, 500 μL of 1× binding buffer was added thereto, and flow cytometry was performed using FACSCalibur (Becton Dickinson, Franklin Lakes, NJ, USA), followed by analysis using the CellQuest software (Becton Dickinson) program.

**Q.** What does the source list for CC(C)=CCC[C@](C)(O)[C@H]1CC[C@]2(C)[C@@H]1[C@H](O)C[C@@H]1[C@@]3(C)CC[C@H](O[C@@H]4O[C@H](CO)[C@@H](O)[C@H](O)[C@H]4O)C(C)(C)[C@@H]3CC[C@]12C [KBB-N2]?
**A.** therapeutic effect for multiple myeloma ([1]; KBB-N2 7 mg/Kg/day tail vein vs positive control lenalidomide 1 mg/Kg/day tail vein): therapeutic effect equal to or higher than that of traditional lenalidomide; effect on multiple myeloma treatment in bone marrow biopsy after treatment ([1]; bone marrow biopsy after treatment): effect of KBB-N2 on multiple myeloma treatment was also found; cytotoxicity to hematopoietic stem cells: number and morphology/formation of progenitor cell colonies [2]: not toxic to normal hematopoietic stem cells; also recorded: not significantly inhibited; overexpression of apoptosis-related gene APAF1 (RPMI 8226 cells): at least 2 fold; overexpression of apoptosis-related gene BAD (RPMI 8226 cells): at least 2 fold; overexpression of apoptosis-related gene BCL2 (RPMI 8226 cells): at least 3 fold; overexpression of apoptosis-related gene BCL2L1 (RPMI 8226 cells): at least 2 fold; overexpression of apoptosis-related gene CAS7 (RPMI 8226 cells): at least 3 fold; overexpression of apoptosis-related gene CASP2 (RPMI 8226 cells): at least 2 fold; overexpression of apoptosis-related gene CASP3 (RPMI 8226 cells): at least 2 fold; overexpression of apoptosis-related gene DAPK1 (RPMI 8226 cells): at least 4 fold; overexpression of apoptosis-related gene FADD (RPMI 8226 cells): at least 2 fold; overexpression of apoptosis-related gene HRK (RPMI 8226 cells): at least 2 fold; overexpression of apoptosis-related gene IGFIR (RPMI 8226 cells): at least 2 fold; overexpression of apoptosis-related gene LTBR (RPMI 8226 cells): at least 2 fold; overexpression of apoptosis-related gene NAIP (RPMI 8226 cells): at least 2 fold; overexpression of apoptosis-related gene NOD1 (RPMI 8226 cells): at least 2 fold; overexpression of apoptosis-related gene NOL3 (RPMI 8226 cells): at least 2 fold; overexpression of apoptosis-related gene TNF (RPMI 8226 cells): at least 2 fold; overexpression of apoptosis-related gene TNFRF1A (RPMI 8226 cells): at least 2 fold; overexpression of apoptosis-related gene TNFRSF1B (RPMI 8226 cells): at least 2 fold; overexpression of apoptosis-related gene TNFRSF10A (RPMI 8226 cells): at least 2 fold; overexpression of apoptosis-related gene TNFRSF10B (RPMI 8226 cells): at least 2 fold; overexpression of apoptosis-related gene TNFRSF25 (RPMI 8226 cells): at least 2 fold; overexpression of apoptosis-related gene TP53 (RPMI 8226 cells): at least 2 fold; overexpression of apoptosis-related gene TRADD (RPMI 8226 cells): at least 2 fold; overexpression of apoptosis-related gene XIAP (RPMI 8226 cells): at least 2 fold; killing effect on co-treatment with lenalidomide [3]: killing effect was higher
